Reference: patent publication US7189720B2 (H. Lundbeck A/S, priority 1999, dated 2007)
Like-named read-outs stand apart in the source and are kept apart here.

Molecular target: T1, human Y5 receptor (Homo sapiens, UniProt Q15761)
T1 construct: expressed in transfected cells; host or cells: mouse fibroblast LM(tk-) cells, e.g. L-hY5-7 (ATCC CRL-11995)
T1 sequence (Q15761 1-445): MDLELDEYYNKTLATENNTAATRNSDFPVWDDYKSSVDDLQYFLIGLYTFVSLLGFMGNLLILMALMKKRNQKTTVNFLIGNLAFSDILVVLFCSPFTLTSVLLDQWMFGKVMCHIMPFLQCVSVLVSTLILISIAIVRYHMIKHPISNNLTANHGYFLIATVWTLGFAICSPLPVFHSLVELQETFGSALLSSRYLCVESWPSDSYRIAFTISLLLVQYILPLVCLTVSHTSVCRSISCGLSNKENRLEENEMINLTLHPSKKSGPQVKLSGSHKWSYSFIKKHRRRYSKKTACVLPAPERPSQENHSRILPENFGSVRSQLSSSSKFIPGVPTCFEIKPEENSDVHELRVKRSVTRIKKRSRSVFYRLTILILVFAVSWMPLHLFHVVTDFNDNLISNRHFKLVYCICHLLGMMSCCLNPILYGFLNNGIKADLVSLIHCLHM
Assay: Radioligand binding to membranes, cloned human Y5 receptor

[1] = Table 6, read-out: Ki, nM hNPY-5
[2] = Table 1, read-out: Ki (nM) hNPY-5
[3] = Table 5, read-out: Ki, nM hNPY-5
[4] = Table 2, read-out: Ki (nM) hNPY-5

Description: Binding of the compounds of the present invention to human Y1, Y2, Y4, and Y5 receptors was evaluated using stably transfected 293 or LM(tk-) cells as described above.
Membranes were harvested from COS-7 cells 48 hours after transient transfection. Adherent cells were washed twice in ice-cold phosphate buffered saline (138 mM NaCl, 8.1 mM Na2HPO4, 2.5 mM KCl, 1.2 mM KH2PO4, 0.9 mM CaCl2, 0.5 mM MgCl2, pH 7.4) and lysed by sonication in ice-cold sonication buffer (20 mM Tris-HCl, 5 mM EDTA, pH 7.7). Large particles and debris were cleared by low speed centrifugation (200×g, 5 min, 4° C.). Membranes were collected from the supernatant fraction by centrifugation (32,000×g, 18 min, 4° C.), washed with ice-cold hypotonic buffer, and collected again by centrifugation (32,000×g, 18 min, 4° C.). The final membrane pellet was resuspended by sonication into a small volume of ice-cold binding buffer (˜1 ml for every 5 plates: 10 mM NaCl, 20 mM HEPES, 0.22 mM KH2PO4, 1.26 mM CaCl2, 0.81 mM MgSO4, pH 7.4). Protein concentration was measured by the Bradford method (Bradford, 1976) using Bio-Rad Reagent, with bovine serum albumin as a standard. Membranes were held on ice for up to one hour and used fresh, or flash-frozen and stored in liquid nitrogen.
Membranes were prepared similarly from 293, LM(tk-), and NIH-3T3 cells.
Membrane suspensions were diluted in binding buffer supplemented with 0.1% bovine serum albumin to yield an optimal membrane protein concentration so that ^125I-PYY (or alternative radioligand such as ^125I-NPY, ^125I-NYY3-36, or ^125I-[Leu^31Pro^34]PYY) bound by membranes in the assay was less than 10% of ^125I-PYY (or alternative radioligand) delivered to the sample (100,000 dpm/sample=0.08 nM for competition binding assays). ^125I-PYY (or alternative radioligand) and peptide competitors were also diluted to desired concentrations in supplemented binding buffer. Individual samples were then prepared in 96-well polypropylene microtiter plates by mixing ^125I-PYY (25 μL) (or alternative radioligand), competing peptides or supplemented binding buffer (25 μL), and finally, membrane suspensions (200 μL). Samples were incubated in a 30° C. water bath with constant shaking for 120 min. Incubations were terminated by filtration over Whatman GF/C filters (pre-coated with 1% polyethyleneimine and air-dried before use), followed by washing with 5 mL of ice-cold binding buffer. Filter-trapped membranes were impregnated with MeltiLex solid scintillant (Wallac, Turku, Finland) and counted for ^125I in a Wallac Beta-Plate Reader. Alternatively, incubations were carried out in GF/C filter plates (pre-coated with 1% polyethyleneimine and air-dried before use), followed by vacuum filtration and three washes of 300 μL of ice-cold binding buffer. 50 μL of UltimaGold (Packard) scintillant were added and counted for ^125I, in a Wallac MicroBeta Trilux. Non-specific binding was defined by 300 nM human NPY for all receptors except the Y4 subtypes; 100 nM human PP was used for the human Y4 and 100 nM rat PP for the rat Y4.

Q: With `Cn1cnc(S(=O)(=O)NC[C@H]2CC[C@H](Nc3nc4c(s3)CCSc3ccccc3-4)CC2)c1` [Example 125, N4-{[4-(4,5-Dihydrobenzo[2,3]thiepino[4,5-d][1,3]thiazol-2-ylamino)cyclohexyl]methyl}-1-methyl-1h-4-imidazolesulfonamide] as the compound, how does the Ki [1] read?
A: 33 nM

Q: With `CN(C)C(=O)NCCCCCNc1nc2c(s1)CCSc1ccccc1-2` [Example 139, N′-[5-(4,5-Dihydrobenzo[2,3]thiepino[4,5-d][1,3]thiazol-2-ylamino)pentyl]-N,N-dimethylurea] as the compound, how does the Ki [1] read?
A: 122 nM

Q: How did the Ki [2] turn out when `CC(C)Nc1nc(NCC2CCC(CNS(=O)(=O)c3cccc4ccccc34)CC2)nc(N2CCN(C(C)C)CC2)n1` (stereo not drawn) [Example 28, N1-{[4-({[4-(isopropylamino)-6-(4-isopropylpiperazino)-1,3,5-triazin-2-yl]amino}methyl)cyclohexyl]methyl}-1-naphthalenesulfonamide] was run?
A: 22 nM

Q: How did the Ki [3] turn out when `COc1ccc(S(=O)(=O)NCCCCCNc2nc(-c3ccccn3)cs2)cc1` [Example 62, 2-(5-(4-Methoxyphenyl)sulfonylamino)pentylamino-4-(2-pyridyl)thiazole hydrogen chloride] was run?
A: 33 nM

Q: For `COc1ccc(C)cc1S(=O)(=O)NC[C@H]1CC[C@H](Nc2nc(-c3nc(C)sc3C)cs2)CC1` [Example 89, trans-N1-[(4-[4-(2,5-Dimethyl-1,3-thiazol-4-yl)-1,3-thiazol-2-yl]aminocyclohexyl)methyl]-2-methoxy-5-methyl-1-benzenesulfonamide], which Ki [3] is on record?
A: 3.2 nM

Q: `COCCCNc1nc(NCC2CCC(CNS(=O)(=O)c3cccc4ccccc34)CC2)nc(NC(C)C)n1` (stereo not drawn) [Example 13, N1-(4-[(4-(isopropylamino)-6-[(3-methoxypropyl)amino]-1,3,5-triazin-2-ylamino)methyl]cyclohexylmethyl)-1-naphthalenesulfonamide] was tested. Which Ki [2] did it give?
A: 22 nM

Q: For `O=S(=O)(NC[C@H]1CC[C@H](Nc2nc3c(s2)CCSc2ccccc2-3)CC1)c1cccc2ccccc12` [Example 121, N1-{[4-(4,5-Dihydrobenzo[2,3]thiepino[4,5-d][1,3]thiazol-2-ylamino)cyclohexyl]methyl}-1-naphthalenesulfonamide], which Ki [1] is on record?
A: 18.4 nM

Q: How did the Ki (Table 3, read-out: Ki (nM) hNPY-5) turn out when `CC(C)Nc1nc(NCC2CCC(CNS(=O)(=O)N3CCCC3)CC2)nc(N2CCCC2)n1` (stereo not drawn) [Example 43, N1-[4-([4-(isopropylamino)-6-tetrahydro-1H-1-pyrrolyl-1,3,5-triazin-2-yl]aminomethyl)cyclohexyl]methyl-1-pyrrolidinesulfonamide] was run?
A: 43 nM

Q: For `N#Cc1ccccc1S(=O)(=O)NC[C@H]1CC[C@H](Nc2nc3c(s2)CCSc2ccccc2-3)CC1` [Example 154, N1-{[4-(4,5-Dihydrobenzo[2,3]thiepino[4,5-d][1,3]thiazol-2-ylamino)cyclohexyl]methyl}-2-cyano-1-benzenesulfonamide], which Ki [1] is on record?
A: 69 nM

Q: `O=S(=O)(NC[C@H]1CC[C@H](Nc2nc3c(s2)CCSc2ccccc2-3)CC1)c1c(Cl)cccc1Cl` [Example 152, N1-{[4-(4,5-Dihydrobenzo[2,3]thiepino[4,5-d][1,3]thiazol-2-ylamino)cyclohexyl]methyl}-2,6-dichloro-1-benzenesulfonamide] was tested. Which Ki [1] did it give?
A: 17.4 nM

Q: Which Ki [1] does the source give for `Cc1cccc(F)c1S(=O)(=O)NCCCCCNc1nc2c(s1)CCSc1ccccc1-2` [Example 134, N1-[5-(4,5-Dihydrobenzo[2,3]thiepino[4,5-d][1,3]thiazol-2-ylamino)pentyl]-2-fluoro-6-methyl-1-benzenesulfonamide] here?
A: 8.3 nM

Q: `CC(C)Nc1nc(NCCN(C)C)nc(NCC2CCC(CNS(=O)(=O)c3cccc4ccccc34)CC2)n1` (stereo not drawn) [Example 14, N1-{[4-({[4-{[2-(dimethylamino)ethyl]amino}-6-(isopropylamino)-1,3,5-triazin-2-yl]amino}methyl)cyclohexyl]methyl}-1-naphthalenesulfonamide] was tested. Which Ki [2] did it give?
A: 194 nM

Q: With `Cc1cccc(F)c1S(=O)(=O)NCCCCNc1nc2c(s1)CCSc1ccccc1-2` [Example 135, N1-[4-(4,5-dihydrobenzo[2,3]thiepino[4,5-d][1,3]thiazol-2-ylamino)butyl]-2-fluoro-6-methyl-1-benzenesulfonamide] as the compound, how does the Ki [1] read?
A: 110 nM

Q: `CC(C)Nc1nc(NCC2CCC(CNS(=O)(=O)c3cccc4ccccc34)CC2)nc(N2CCCC2)n1` (stereo not drawn) [Example 20, N1-[4-([4-(isopropylamino)-6-tetrahydro-1H-1-pyrrolyl-1,3,5-triazin-2-yl]aminomethyl)cyclohexyl]methyl-1-naphthalenesulfonamide] was tested. Which Ki [2] did it give?
A: 19 nM

Q: Which Ki [1] does the source give for `O=S(=O)(NC[C@H]1CC[C@H](Nc2nc3c(s2)CCSc2ccccc2-3)CC1)c1ccc(F)cc1` [Example 155, N1-{[4-(4,5-Dihydrobenzo[2,3]thiepino[4,5-d][1,3]thiazol-2-ylamino)cyclohexyl]methyl}-4-fluoro-1-benzenesulfonamide] here?
A: 9.1 nM

Q: For `CCN(C)c1nc(NCC2CCC(CNS(=O)(=O)c3cccc4ccccc34)CC2)nc(NC(C)C)n1` (stereo not drawn) [Example 18, N1-[4-([4-[ethyl(methyl)amino]-6-(isopropylamino)-1,3,5-triazin-2-yl]aminomethyl)cyclohexyl]methyl-1-naphthalenesulfonamide], which Ki [2] is on record?
A: 32 nM

Q: With `CCNc1nc(NCC)nc(NCC2CCC(CNS(=O)(=O)c3cccc4cccnc34)CC2)n1` (stereo not drawn) [Example 41, N8-[4-([4,6-di(ethylamino)-1,3,5-triazin-2-yl]aminomethyl)cyclohexyl]methyl-8-quinolinesulfonamide] as the compound, how does the Ki [4] read?
A: 13 nM

Q: `O=S(=O)(NCCCCCNc1nc2c(s1)CCSc1ccccc1-2)c1cccc2ccccc12` [Example 127, N1-[5-(4,5-Dihydrobenzo[2,3]thiepino[4,5-d][1,3]thiazol-2-ylamino)pentyl]-1-naphthalenesulfonamide] was tested. Which Ki [1] did it give?
A: 17.2 nM

Q: `CCS(=O)(=O)NCCCCCCNc1nc2c(s1)CCSc1ccccc1-2` [Example 105, N1-[6-(4,5-Dihydrobenzo[2,3]thiepino[4,5-d][1,3]thiazol-2-ylamino)hexyl]-1-ethanesulfonamide] was tested. Which Ki [1] did it give?
A: 5.4 nM

Q: How did the Ki [4] turn out when `CCNc1nc(NCC)nc(NCC2CCC(CNS(=O)(=O)c3oc(C)nc3C)CC2)n1` (stereo not drawn) [Example 36, N5-[4-([4,6-di(ethylamino)-1,3,5-triazin-2-yl]aminomethyl)cyclohexyl]methyl-2,4-dimethyl-1,3-oxazole-5-sulfonamide] was run?
A: 71 nM

Q: How did the Ki [2] turn out when `COC[C@@H]1CCCN1c1nc(NCC2CCC(CNS(=O)(=O)c3cccc4ccccc34)CC2)nc(NC(C)C)n1` (stereo partly drawn) [Example 21, N1-(4-[(4-(isopropylamino)-6-[(2S)-2-(methoxymethyl)tetrahydro-1H-1-pyrrolyl]-1,3,5-triazin-2-ylamino)methyl]cyclohexylmethyl)-1-naphthalenesulfonamide] was run?
A: 71 nM

Q: How did the Ki [2] turn out when `CCCCNc1nc(NCC2CCC(CNS(=O)(=O)c3cccc4ccccc34)CC2)nc(NC(C)C)n1` (stereo not drawn) [Example 6, N1-[4-([4-(butylamino)-6-(isopropylamino)-1,3,5-triazin-2-yl]aminomethyl)cyclohexyl]methyl-1-naphthalenesulfonamide] was run?
A: 22 nM

Q: Which Ki [3] does the source give for `Cc1nc(-c2csc(NC[C@H]3CC[C@H](CNS(=O)(=O)N4CCOCC4)CC3)n2)c(C)s1` [Example 100, trans-N4-[4-([4-(2,5-Dimethyl-1,3-thiazol-4-yl)-1,3-thiazol-2-yl]aminomethyl)cyclohexyl]methyl-4-morpholinesulfonamide] here?
A: 3.3 nM

Q: For `O=S(=O)(NCCCCCCNc1nc2c(s1)CCSc1ccccc1-2)c1c(Cl)cccc1Cl` [Example 146, N1-[6-(4,5-Dihydrobenzo[2,3]thiepino[4,5-d][1,3]thiazol-2-ylamino)hexyl]-2,6-dichloro-1-benzenesulfonamide], which Ki [1] is on record?
A: 25 nM

Q: With `O=S(=O)(NC[C@H]1CC[C@H](Nc2nc3c(s2)CCSc2ccccc2-3)CC1)c1cccs1` [Example 108, N2-{[4-(4,5-Dihydrobenzo[2,3]thiepino[4,5-d][1,3]thiazol-2-ylamino)cyclohexyl]methyl}-2-thiophenesulfonamide] as the compound, how does the Ki [1] read?
A: 5.1 nM

Q: With `COc1ccc(C)cc1S(=O)(=O)NCCCCCCNc1nc2c(s1)CCSc1ccccc1-2` [Example 113, N1-[6-(4,5-Dihydrobenzo[2,3]thiepino[4,5-d][1,3]thiazol-2-ylamino)hexyl]-2-methoxy-5-methyl-1-benzenesulfonamide] as the compound, how does the Ki [1] read?
A: 5.4 nM

Q: How did the Ki [1] turn out when `Cn1cnc(S(=O)(=O)NCCCCCNc2nc3c(s2)CCSc2ccccc2-3)c1` [Example 111, N4-[5-(4,5-Dihydrobenzo[2,3]thiepino[4,5-d][1,3]thiazol-2-ylamino)pentyl]-1-methyl-1H-4-imidazolesulfonamide] was run?
A: 17.2 nM

Q: How did the Ki [4] turn out when `CCNc1nc(NCC)nc(NCC2CCC(CNS(C)(=O)=O)CC2)n1` (stereo not drawn) [Example 42, N-[4-([4,6-di(ethylamino)-1,3,5-triazin-2-yl]aminomethyl)cyclohexyl]methylmethanesulfonamide] was run?
A: 3070 nM

Q: For `Cc1noc(C)c1S(=O)(=O)N[C@H]1CC[C@H](CNc2nc(-c3ccccn3)cs2)CC1` [Example 85, trans-2-(4-(3,5-Dimethyl-4-isoxazolyl)sulfonylamino)-cyclohexylmethylamino-4-(2-pyridyl)thiazole dihydrogen chloride], which Ki [3] is on record?
A: 3.8 nM

Q: For `CC(C)Nc1nc(NCC2CCC(CNS(=O)(=O)c3cccc4ccccc34)CC2)nc(NC2CC2)n1` (stereo not drawn) [Example 8, N1-[4-([4-(cyclopropylamino)-6-(isopropylamino)-1,3,5-triazin-2-yl]aminomethyl)cyclohexyl]methyl-1-naphthalenesulfonamide], which Ki [2] is on record?
A: 9 nM
